Molecular target: T1, human GPR120 (Homo sapiens, UniProt Q5NUL3)
T1 construct: host or cells: HEK293 cells co-expressing Gqi5
T1 sequence (Q5NUL3 1-361): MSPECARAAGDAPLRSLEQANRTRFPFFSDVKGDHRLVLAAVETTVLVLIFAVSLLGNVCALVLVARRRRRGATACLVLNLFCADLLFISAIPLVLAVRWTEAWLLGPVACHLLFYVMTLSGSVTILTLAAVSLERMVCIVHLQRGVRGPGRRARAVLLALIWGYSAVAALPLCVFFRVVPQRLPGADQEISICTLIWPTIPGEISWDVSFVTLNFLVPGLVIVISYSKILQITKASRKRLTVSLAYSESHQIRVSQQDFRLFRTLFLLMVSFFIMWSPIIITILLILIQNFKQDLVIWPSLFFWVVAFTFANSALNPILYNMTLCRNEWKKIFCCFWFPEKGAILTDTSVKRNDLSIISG
Assay: Intracellular Ca2+ assay in human GPR120 stable cell line (HEK293 co-expressing Gqi5), Flexstation
Type: cell-based
Settings: for % Activity (GW9508 Reference Compound): % activity at 5 μM compared to the maximal activity of GW9508 at 6.7 μM (=100%)
Method: Human GPR120 stable cell line was purchased from Multispan Inc (26219 Eden Landing Road, Hayward, Calif. 94545). This GPR120 cell line was generated in HEK293 cells co-expressing Gqi5. In this cell line, the Flag epitope tag (DYKDDDDK) was fused to the amino terminus of human GPR120 protein.
The concentration of intracellular Ca^2+ was measured as described below. Human GPR120 cells were plated in 96 well plates (Poly-D-Lysine coated black/clear Plate, Greiner Bio-One) at 70,000 cells per well and cultured overnight in conditions of 37° C. and 5% CO2. A Ca^2+assay dye stock solution was prepared by adding 10 mL of assay buffer (HBSS/20 mM HEPES, pH 7.4) to FLIPR Calcium 4 Assay Bulk Kit (Molecular Devices). The 10 mL of Ca^2+ assay dye solution was prepared by further diluting 0.5 mL of Ca^2+ assay dye stock solution with 10 mL of assay buffer. The medium of the cells was removed and immediately 100 μL of the Ca^2+ assay dye solution was dispensed into each well followed by incubation at 37° C. and 5% CO2 for 50 minutes to incorporate the Ca^2+ dye into the cells. The cell plate was then placed in the Flexstation (Molecular Devices) for 20 minutes at 37° C. Compounds were dissolved in 100% DMSO and diluted to desired concentrations with assay buffer and placed in the Flexstation simultaneously with the cell plate for 20 minute incubation at 37° C. prior to reading. Fluorescence intensity was measured immediately following compound addition (25 μL/well) on the Flexstation at an excitation wavelength of 485 nm and an emission wavelength of 525 with 515 nm auto cutoff. The resulting increase in fluorescence intensities corresponds to increases in intracellular Ca^2+ levels.
Compounds were dissolved in 100% DMSO to a concentration of 20 mM to provide stock solutions. To determine activity against human GPR120, compounds were added with human GPR120 stably expressing cells (described above), at eight desired concentrations ranging from 0.00001 to 20 μM, in 96 well plates and fluorescence intensities were measured for 90 seconds with 2-second intervals. An EC50 value (concentration of the GPR120 agonist where 50% of the agonist's maximal activity is observed) was calculated using the changes (Max−Min) of fluorescence intensity.
To determine percent activity for a tested compound, the fluorescence intensity value obtained at a particular concentration were compared to the maximal fluorescence intensity value obtained for reference compound GW9508 (4-[[(3-phenoxyphenyl)methyl]amino]benzene propanoic acid; British Journal of Pharmacology 2006 148, 619-628) or the compound of Example 25. When GW9508 was used as the reference compound, the maximal activity of GW9508 at 6.7 μM was designated as 100% activity. When the compound of Example 25 was used as the reference compound, the maximal activity of the compound of Example 25 at 2.5 μM was designated as 100% activity. Typically, the GW9508 activity reached a maximum at a concentration of approximately 6.7 μM and typically the compound of Example 25 reached a maximum activity at approximately 2.5 μM.

[1] = human GPR120 cells, Ca2+ fluorescence

| Molecule | % Activity (GW9508 Reference Compound) [1] | further results |
| --- | --- | --- |
| Cc1cc(OCc2cc(F)cc3c2OC(C)(C)C3)c(C)cc1CCC(=O)O [Example 206, 3-(4-((5-fluoro-2,2-dimethyl-2,3-dihydrobenzofuran-7-yl)methoxy)-2,5-dimethylphenyl)propanoic acid] | 111.45% |  |
| COc1cc(OCc2cc(F)cc3c2OC(C)(C)C3)ccc1CCC(=O)O [Example 50, 3-(4-((5-fluoro-2,2-dimethyl-2,3-dihydrobenzofuran-7-yl)methoxy)-2-methoxyphenyl)propanoic acid] | 129.78% |  |
| CC1(C)Cc2c(COc3ccc4c(c3)CCC4CC(=O)O)ccc(F)c2O1 (centres unmarked) [Example 94, 2-(5-((7-fluoro-2,2-dimethyl-2,3-dihydrobenzofuran-4-yl)methoxy)-2,3-dihydro-1H-inden-1-yl)acetic acid] | 98.45% |  |
| CC1(C)Cc2cc(F)cc(COc3ccc4c(c3)CC[C@H]4CC(=O)O)c2O1 [Example 175, (S)-2-(5-((5-fluoro-2,2-dimethyl-2,3-dihydrobenzofuran-7-yl)methoxy)-2,3-dihydro-1H-inden-1-yl)acetic acid] | 152.44% |  |
| CC1(C)Cc2c(C(F)(F)F)ccc(COc3c(F)cc(C4CC4C(=O)O)cc3F)c2O1 (centres unmarked) [Example 31, 2-(4-((2,2-dimethyl-4-(trifluoromethyl)-2,3-dihydrobenzofuran-7-yl)methoxy)-3,5-difluorophenyl)cyclopropanecarboxylic acid] | 149.5% |  |
| CC(Cc1ccc(NC(=O)c2cc(F)cc3c2OC(C)(C)C3)cc1)C(=O)O (centres unmarked) [Example 68, 3-(4-(5-fluoro-2,2-dimethyl-2,3-dihydrobenzofuran-7-carboxamido)phenyl)-2-methylpropanoic acid] | 69.03% | EC50 (human GPR120 stably expressing cells, Ca2+ fluorescence (Max-Min), eight concentrations 0.00001 to 20 μM): > 10 µM |
| CC(=O)NCCOC(=O)C(C)Cc1ccc(OCc2cc(Cl)cc3c2OC(C)(C)C3)c(C(F)(F)F)c1 (centres unmarked) [Example 126, 2-acetamidoethyl 3-(4-((5-chloro-2,2-dimethyl-2,3-dihydrobenzofuran-7-yl)methoxy)-3-(trifluoromethyl)phenyl)-2-methylpropanoate] | 47.02% |  |
| CC1(C)Cc2cc(F)cc(COc3ccc(CCCC(=O)O)cc3)c2O1 [Example 160, 4-(4-((5-fluoro-2,2-dimethyl-2,3-dihydrobenzofuran-7-yl)methoxy)phenyl)butanoic acid] | 172.13% |  |
| CC(Cc1cc(F)c(OCc2cc(Cl)cc3c2OC(C)(C)C3)c(F)c1)C(=O)O (centres unmarked) [Example 38, 3-(4-((5-chloro-2,2-dimethyl-2,3-dihydrobenzofuran-7-yl)methoxy)-3,5-difluorophenyl)-2-methylpropanoic acid] | 83.43% |  |
| CC(Cc1ccc(OCc2cc(Cl)cc3c2OC(C)(C)C3O)cc1)C(=O)O (centres unmarked) [Example 130, 3-(4-((5-chloro-3-hydroxy-2,2-dimethyl-2,3-dihydrobenzofuran-7-yl)methoxy)phenyl)-2-methylpropanoic acid] | 103.85% |  |
| CCN(CC)c1cc(COc2ccc(CC(C)C(=O)O)cc2)c2c(c1)CC(C)(C)O2 (centres unmarked) [Example 89, 3-(4-((5-(diethylamino)-2,2-dimethyl-2,3-dihydrobenzofuran-7-yl)methoxy)phenyl)-2-methylpropanoic acid] | 82.28% |  |
| CC(Cc1cccc(OCc2cc(Cl)cc3c2OC(C)(C)C3)c1)C(=O)O (centres unmarked) [Example 251, 3-(3-((5-chloro-2,2-dimethyl-2,3-dihydrobenzofuran-7-yl)methoxy)phenyl)-2-methylpropanoic acid] | 61.14% |  |
| 4-[[(3-phenoxyphenyl)methyl]amino]benzene propanoic acid [GW9508, reference compound] |  | concentration at which activity reached a maximum (human GPR120 cells, Ca2+ fluorescence, reference compounds, typical value): approximately 6.7 μM |
| CC(Cc1ccc(OCc2ccc(C(F)(F)F)c3c2OC(C)(C)C3)c(F)c1)C(=O)O (centres unmarked) [Example 33, 3-(4-((2,2-dimethyl-4-(trifluoromethyl)-2,3-dihydrobenzofuran-7-yl)methoxy)-3-fluorophenyl)-2-methylpropanoic acid] | 142.9517% |  |
| CC1(C)Cc2cc(F)cc(COc3ccc(CCC(=O)O)c4c3CCC4)c2O1 [Example 63, 3-(7-((5-fluoro-2,2-dimethyl-2,3-dihydrobenzofuran-7-yl)methoxy)-2,3-dihydro-1H-inden-4-yl)propanoic acid] | 95.03% |  |
| CC1(C)Cc2cc(F)cc(COc3cc(Cl)c(CCC(=O)O)c(Cl)c3)c2O1 [Example 197, 3-(2,6-dichloro-4-((5-fluoro-2,2-dimethyl-2,3-dihydrobenzofuran-7-yl)methoxy)phenyl)propanoic acid] | 151.44% |  |
| [2H]C1([2H])c2cc(Cl)cc(COc3ccc(CC(C)C(=O)O)cc3C(F)(F)F)c2OC1(C)C (centres unmarked) [Example 147, 3-(4-((3,3-dideuterio-5-chloro-2,2-dimethyl-2,3-dihydrobenzofuran-7-yl)methoxy)-3-(trifluoromethyl)phenyl)-2-methylpropanoic acid] | 138.65% |  |
| CC(Cc1ccc(OCc2cc(-c3ccc(Cl)cc3)cc3c2OC(C)(C)C3)cc1)C(=O)O (centres unmarked) [Example 82, 3-(4-((5-(4-chlorophenyl)-2,2-dimethyl-2,3-dihydrobenzofuran-7-yl)methoxy)phenyl)-2-methylpropanoic acid] | 24% |  |
| CC1(C)Cc2cc(F)cc(COc3ccc4c(c3)CCC4CC(=O)O)c2O1 (centres unmarked) [Example 37, 2-(5-((5-fluoro-2,2-dimethyl-2,3-dihydrobenzofuran-7-yl)methoxy)-2,3-dihydro-1H-inden-1-yl)acetic acid] | 124.7% |  |
| CC1(C)Cc2cc(F)cc(COc3ccc(CC(=O)O)cc3)c2O1 [Example 133, 2-(4-((5-fluoro-2,2-dimethyl-2,3-dihydrobenzofuran-7-yl)methoxy)phenyl)acetic acid] | 103.4% |  |
| CC(Cc1ccc(OCc2cc(Cl)cc3c2OC(C)(C)C3=O)c(F)c1)C(=O)O (centres unmarked) [Example 77, 3-(4-((5-chloro-2,2-dimethyl-3-oxo-2,3-dihydrobenzofuran-7-yl)methoxy)-3-fluorophenyl)-2-methylpropanoic acid] | 109.62% |  |
| CC1(C)Cc2cc(F)cc(COc3ccc4cc(C(=O)O)ccc4c3)c2O1 [Example 114, 6-((5-fluoro-2,2-dimethyl-2,3-dihydrobenzofuran-7-yl)methoxy)-2-naphthoic acid] | 123.58% |  |
| CC(Cc1ccc(OCc2ccc(F)c3c2CC(C)(C)O3)cc1)C(=O)O (centres unmarked) [Example 91, 3-(4-((7-fluoro-2,2-dimethyl-2,3-dihydrobenzofuran-4-yl)methoxy)phenyl)-2-methylpropanoic acid] | 121.29% |  |
| Cc1cc(COc2ccc(CC(C)C(=O)O)cc2)c2c(c1)CC(C)(C)O2 (centres unmarked) [Example 4, 2-methyl-3-(4-((2,2,5-trimethyl-2,3-dihydrobenzofuran-7-yl)methoxy)phenyl)propanoic acid] | 110.8% |  |
| CC(C)Oc1cc(OCc2cc(F)cc3c2OC(C)(C)C3)ccc1CCC(=O)O [Example 115, 3-(4-((5-fluoro-2,2-dimethyl-2,3-dihydrobenzofuran-7-yl)methoxy)-2-isopropoxyphenyl)propanoic acid] | 151.78% |  |

Reference: US20130109734A1 (Metabolex, Inc., priority 2010, published 2013)
